Target: T1, Human PXR (Homo sapiens, UniProt O75469)
T1 construct: expressed in transfected cells; host or cells: HepG2
T1 sequence (O75469 1-434): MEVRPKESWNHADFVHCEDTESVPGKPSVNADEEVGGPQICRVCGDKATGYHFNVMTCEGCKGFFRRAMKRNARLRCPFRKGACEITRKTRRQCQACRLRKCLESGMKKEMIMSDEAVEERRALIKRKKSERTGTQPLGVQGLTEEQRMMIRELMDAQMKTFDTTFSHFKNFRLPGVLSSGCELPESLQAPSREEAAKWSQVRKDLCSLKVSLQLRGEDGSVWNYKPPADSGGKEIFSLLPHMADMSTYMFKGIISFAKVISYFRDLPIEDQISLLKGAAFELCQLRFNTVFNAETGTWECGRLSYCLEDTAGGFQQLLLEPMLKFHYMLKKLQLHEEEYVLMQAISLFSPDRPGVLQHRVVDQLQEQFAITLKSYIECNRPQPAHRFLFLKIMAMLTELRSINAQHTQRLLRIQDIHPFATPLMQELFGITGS
Assay: PXR transactivation assay (HepG2, CYP3A-Luc reporter)
Format: cell-based
From the text: The cell culture medium used is DMEM. […] Charcoal/dextran treated fetal bovine serum (FBS) was purchased from Hyclone (Logan, Utah). HepG2 cells were obtained from ATCC (Manassas, Va.). Human PXR-pcDNA3 and luciferase reporter containing CYP3A4 promoter, CYP3A-Luc, were generated at Bristol-Myers Squibb. White tissue culture (TC)-surface 384-well plates were purchased from Perkin Elmer (Boston, Mass.). Luciferase substrate (Steady-Glo) was purchased from Promega (Madison, Wis.). Control compounds rifampicin, mifepristone, and sulfinpyrazone were purchased from Sigma (St. Louis, Mo.).
Culture of HepG2 cells is performed in T175 flasks using DMEM containing 10% FBS. The transfection mixture contains 1 μg/mL of PXR-pcDNA3 plasmid DNA, 20 μg/ml of Cyp3A-Luc plasmid DNA, 90 μL/mL of Lipofectamine 2000, and serum-free medium. After incubating at room temperature for 20 minutes, the transfection mixture (1 ml per flask) is applied to the cells in fresh medium (20 mL per flask), and flasks incubated at 37° C. (5% CO2) overnight.
The flasks are then tapped vigorously to break up cell aggregates. After the addition of 8 mL of DMEM containing 5% charcoal/dextran-treated FBS, the entire mixture is transferred to conical tubes. Cells are then centrifuged at 1000 rpm for 5 minutes. Cell pellets are resuspended to a final count of ˜7×10^6 cells/mL in freezing media (DMEM containing 20% serum and 10% DMSO). The cell suspension is aliquoted into 15-mL polypropylene tubes, 5 mL per tube. Cells are slowly frozen by placing in a Styrofoam-insulated container at −80° C. overnight. Vials are transferred to an Ultracold (−140° C.) freezer after 24 hours for long-term storage.
Vials of cryopreserved cells are thawed rapidly in a warm water bath for five minutes. Cells are pooled and diluted to 50 mL in a 50-mL conical vial. The thawed cells are centrifuged at 1500 rpm for 5 minutes to collect the cells and the supernatant discarded. Cells are then resuspended in fresh Media II (DMEM containing 5% charcoal/dextran-treated FBS, 1% Penicillin/Streptomycin, 100 μM Non-essential Amino Acids, 1 mM Sodium Pyruvate, and 2 mM L-Glutamine), counted using the Guava Cell Counter, and diluted to 1.6×10^5 cells/ml in the same media.
Fifty microliters of cell mixture is added to wells in columns 1-23 of white tissue-culture treated 384-well plates containing 0.25 μL of test compound dissolved in 100% DMSO. Fifty microliters of Media II is added to wells in column 24. The plates are incubated at 37° C. (5% CO2) for 24 hours, then 5 μL of Alamar Blue reagent (Trek Diagnostics, Cat #00-100) is added to each well. Plates are then incubated an additional two hours at 37° C., 5% CO2 and then one hour at room temperature. […] After the fluorescence is measured, 25 μL of luciferase substrate (Steady-Glo, Promega) is added to each well. The plates are incubated for fifteen minutes at room temperature, after which the luminescence is read on a PheraStar (BMG Labtech) plate reader.
Rifampicin (10 μM), a well-known agonist of PXR, is included in each plate as an internal standard and positive control. The data is then expressed as percent control (% CTRL), where the control signal is the signal from the 10 μM rifampicin and the blank signal is that from the DMSO vehicle. % CTRL=((Compound signal−Blank signal)/(Control signal−Blank signal))*100
The EC50 is defined as the concentration corresponding to half of the maximal response derived from the fitted 20-point curve as determined using a four-parameter logistic regression model. Additionally, compounds may also be reported as EC20 or EC60.

SMILES | PXR activation (in vitro screen, in words) | EC50 (HepG2, relative to 10 μM rifampicin) [µM] | PXR EC20 (reported as EC20)
CC(C)[C@@H](NC(=O)[C@@H]1CCC(F)(F)C1)C(=O)N1CC[C@](O)(c2ccc(Cl)cc2)[C@@](C)(O)C1 [Compound I, (R)—N—((R)-1-((3S,4S)-4-(4-chlorophenyl)-3,4-dihydroxy-3-methylpiperidin-1-yl)-3-methyl-1-oxobutan-2-yl)-3,3-difluorocyclopentanecarboxamide] | not a significant activator | > 50 | –
CC(C)COC(=O)N[C@@H](C(=O)N1CC[C@](O)(c2ccc(Cl)cc2)C(C)(C)C1)C(C)C [Example 1083] | – | – | 1.9 (EC20) μM

— patent US8642622B2, “Piperidinyl compound as a modulator of chemokine receptor activity” (Bristol-Myers Squibb Company, priority 2010, dated 2014)
